Like-named read-outs stand apart in the source and are kept apart here.

Consider 13 compounds from US11220503B2, “Phthalazine derivatives, preparation method, pharmaceutical composition and usage thereof” (Shanghai SIMR Biotech Co., Ltd., priority 2015, dated 2022).

The target in this assay is T1, α5β3γ2 receptor (Homo sapiens, UniProt P18507+P31644).
T1 construct: expressed in transfected cells; host or cells: HEK-293 (stably transfected)
The assay is described as follows: Cell level screening: whole cell patch clamp, inverse agonist efficacy. It counts as cell-based. The conditions noted are these: for inhibition at 0.001 µM: Con. 1 nM; for inhibition at 0.01 µM: Con. 10 nM; for inhibition at 0.05 µM: Con. 50 nM; for inhibition at 1 µM: Con. 1000 nM; for inverse agonism efficacy of the compound/α5IA inverse agonism efficacy: ratio to α5IA, compound 100 nM. The protocol:
The inventors used electrophysiological methods to assay the inverse agonist efficacy of the substance to be tested. The detailed procedures are as follows: (1) Different subunits of GABAA receptors were expressed in human embryonic kidney cells 293 (HEK293). The cells were cultured in a culture medium and used as a cell model for screening potential analgesics. The α, β and γ subunits are necessary to form complete functional GABAA receptors. In this example, the inventor has established the following cell model: (a) α5 subunit (protein sequence is GenBank accession number: NP_001158509), β3 subunit (protein sequence is GenBank accession number: NP_068712) and γ2 subunit (protein sequence is GenBank accession number: NP_944494) were expressed in HEK-293 cell lines at the same time, which formed the complete functional GABAA receptors. (2) Cells were stably transfected HEK-293 cells expressing α5β3γ2 receptor, which were labeled by green fluorescent protein (GFP). Cells were grown in 10 cm dishes. The cells were passaged after reaching 80-90% confluence. During passaging, the culture medium was removed and discarded, 3 mL DMEM medium (Gibco™) was added to the dishes, the dishes were shaken slightly, and DMEM was removed and discarded. 3 mL Trypsin (Trypsin-EDTA 0.05%, Gibco™) was added and cells were digested at 37° C. for 3 minutes. Then 3 mL complete growth medium (DMEM+10% horse serum (Gibco™)) was added and the cells at the bottom of the culture dishes were dispersed. The cell suspension were transferred to a 15 mL centrifugal tube (Corning®) and then centrifuged at 200 g for 3 minutes. The supernatant was discarded, 4 mL complete growth medium was added, and the cells were resuspended by gently blowing. The cell suspension was diluted by 1:5 or 1:10 for subculturing. The cell suspension was diluted by 1:12 for electrophysiology experiment, which are added to the 24 well plate (Corning®) which has a glass slide pre-treated with poly-D-lysine. The cells were adhered to the slide before the experiment was conducted. The cells were maintained in culture for no more than 24 hours before use. (3) Compound concentration: for screening, all compounds were diluted to a final concentration of 100 nM. GABA was diluted at the concentration of 0.05-0.1 μM. The compounds were at the concentration of 1 nM, 10 nM, 50 nM, 100 nM and 1000 nM in dose-inverse agonism efficacy (%) experiment. The whole cell patch clamp technique was used in electrophysiology experiments. The extracellular solution (ECS) contained: 150 mM NaCl, 5 mM KCl, 2.5 mM CaCl2, 1 mM MgCl2, 10 mM HEPES and 10 mM glucose (pH 7.4); Patch electrodes were filled with an intracellular solution containing: 140 mM KCl, 5 mM EGTA, 10 mM HEPES (adjusted to pH 7.4 with KOH and to 320-330 mOsm with water). The currents were recorded by an EPC-10 amplifier and the PatchMaster software (HEKA). Patch electrodes with a resistance of 5-6 MΩ were pulled from borosilicate glass (Sutter). The diluted compounds were perfused by OCTAFLOWII system. GFP positive and independently growing cells were selected for recording. During recording, the membrane voltage was clamped at −60 mV. During experiment, the cells were firstly perfused with ECS for 20 seconds. When the baseline reached to a stable state, cells were then perfused with GABA solution. Then the current induced by GABA can be detected. After about 20-40 seconds, the current was stable. ECS was switched to compounds solution and the effects of the compounds were detected. At last, the perfusion solution was switched to ECS. The experiment was finished when the post-baseline returned to the pre-baseline before compounds perfusion. Only the data whose pre-baseline and post-baseline are at almost the same level were used for analysis. GABA was diluted at the concentration of 0.05-0.1 μM in ECS. Then, compounds were diluted at the desired concentration in GABA ECS. (4) Currents were analyzed with the PatchMaster (HEKA) software. […]
A general note: The patch-clamp technique gives a direct electrical read-out from membranes.

The mark [1] stands for this setting: HEK293, compound 100 nM, GABA 0.05-0.1 μM, HEK293 α5β3γ2, clamped at −60 mV, (Ipost-Ipre)*100/Ipre, read-out: inverse agonism efficacy(%).
[2] abbreviates: dose-efficacy, single replicates, read-out: Inverse agonism-Efficacy.
Setting [3] is: dose-efficacy, Con. 100 nM, single replicates, read-out: Inverse agonism-Efficacy.

T1 sequence (P31644 32-462): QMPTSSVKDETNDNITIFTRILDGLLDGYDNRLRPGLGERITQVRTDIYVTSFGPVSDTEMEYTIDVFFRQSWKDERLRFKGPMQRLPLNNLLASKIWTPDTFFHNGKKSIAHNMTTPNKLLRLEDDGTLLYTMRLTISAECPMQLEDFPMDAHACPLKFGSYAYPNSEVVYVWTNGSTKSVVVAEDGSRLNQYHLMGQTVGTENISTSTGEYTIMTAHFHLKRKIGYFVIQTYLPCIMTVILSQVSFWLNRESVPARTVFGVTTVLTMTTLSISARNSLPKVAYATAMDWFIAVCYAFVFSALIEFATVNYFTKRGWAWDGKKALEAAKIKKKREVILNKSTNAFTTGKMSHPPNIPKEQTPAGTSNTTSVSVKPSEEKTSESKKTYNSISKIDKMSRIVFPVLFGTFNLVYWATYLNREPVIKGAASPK
T1 sequence (P28472 26-473 isoform P28472-2 partner limits assumed): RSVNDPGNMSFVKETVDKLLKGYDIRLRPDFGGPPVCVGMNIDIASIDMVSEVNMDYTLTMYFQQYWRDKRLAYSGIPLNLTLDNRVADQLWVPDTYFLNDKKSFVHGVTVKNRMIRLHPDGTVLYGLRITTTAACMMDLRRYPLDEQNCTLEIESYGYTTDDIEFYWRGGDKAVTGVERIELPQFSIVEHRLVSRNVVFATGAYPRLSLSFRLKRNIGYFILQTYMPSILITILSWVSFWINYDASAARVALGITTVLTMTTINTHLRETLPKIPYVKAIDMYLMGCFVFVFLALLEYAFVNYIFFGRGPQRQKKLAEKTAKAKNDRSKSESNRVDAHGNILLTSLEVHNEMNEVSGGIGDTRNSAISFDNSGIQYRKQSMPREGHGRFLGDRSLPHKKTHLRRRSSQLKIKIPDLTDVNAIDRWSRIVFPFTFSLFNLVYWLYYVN
T1 sequence (P18507 40-475): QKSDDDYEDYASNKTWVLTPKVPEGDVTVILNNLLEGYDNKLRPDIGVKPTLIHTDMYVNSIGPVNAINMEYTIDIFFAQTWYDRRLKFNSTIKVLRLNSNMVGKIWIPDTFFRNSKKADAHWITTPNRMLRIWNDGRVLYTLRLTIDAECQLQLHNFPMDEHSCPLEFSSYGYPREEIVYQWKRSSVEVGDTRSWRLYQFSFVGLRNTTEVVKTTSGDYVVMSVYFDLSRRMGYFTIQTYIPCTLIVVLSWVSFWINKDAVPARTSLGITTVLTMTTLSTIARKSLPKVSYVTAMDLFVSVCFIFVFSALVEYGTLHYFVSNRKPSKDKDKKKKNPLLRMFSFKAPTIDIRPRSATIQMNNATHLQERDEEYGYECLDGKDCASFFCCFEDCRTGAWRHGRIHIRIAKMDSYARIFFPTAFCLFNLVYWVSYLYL

`Cc1cc(-c2nnc3c4ccccc4c(OCc4ccc(C(=O)N(C)C)cn4)nn23)no1` [Compound 06, N,N-dimethyl-6-(((3-(5-methylisoxazol-3-yl)-[1,2,4]triazolo[3,4-a]phthalazin-6-yl)oxy)methyl)nicotinamide]: the “inverse agonism efficacy of the compound/α5IA inverse agonism efficacy” value (shortened to “inverse agonism efficacy”) came out at 1.596. Further, under setting [1], the inhibition at 0.1 µM was 36%. Moreover, under setting [2], the inhibition at 0.001 µM turned out to be 10%, the inhibition at 0.01 µM is 17%, the inhibition at 0.05 µM turned out to be 23.1% and the inhibition at 1 µM turned out to be 32.3%. Moreover, under setting [3], the inhibition at 0.1 µM worked out at 26%.

With `Cc1nc(-c2nnc3c4ccccc4c(OCc4ccc(C(=O)N[C@H](C)CO)cc4C#N)nn23)no1` [Compound 31, (R)-3-cyano-N-(1-hydroxypropan-2-yl)-4-(((3-(5-methyl-1,2,4-oxadiazol-3-yl)-[1,2,4]triazolo[3,4-a]phthalazin-6-yl)oxy)methyl)benzamide], the “inverse agonism efficacy” value amounted to 2.1179. Under setting [1], the inhibition at 0.1 µM was 47.8%.

In the case of `Cc1cc(-c2nnc3c4ccccc4c(OCc4ccc(C(=O)N[C@H](C)CO)cc4Br)nn23)no1` [Compound 32, (R)-3-bromo-N-(1-hydroxypropan-2-yl)-4-(((3-(5-methylisoxazol-3-yl)-[1,2,4]triazolo[3,4-a]phthalazin-6-yl)oxy)methyl)benzamide], the “inverse agonism efficacy” value is 1.739. In addition, the inhibition at 0.1 µM under setting [1] came out at 39.2%.

For `O=C(NN1CCOCC1)c1ccc(COc2nn3c(-c4cc(CO)on4)nnc3c3ccccc23)nc1` [Compound 33, 6-(((3-(5-(hydroxymethyl)isoxazol-3-yl)-[1,2,4]triazolo[3,4-a]phthalazin-6-yl)oxy)methyl)-N-morpholinonicotinamide], the “inverse agonism efficacy” value turned out to be 1.463. Also, under setting [1], the inhibition at 0.1 µM was found to be 33%.

For `Cn1cc(NC(=O)c2ccc(COc3nn4c(-c5cc(CO)on5)nnc4c4ccccc34)nc2)cn1` [Compound 37, 6-(((3-(5-(hydroxymethyl)isoxazol-3-yl)-[1,2,4]triazolo[3,4-a]phthalazin-6-yl)oxy)methyl)-N-(1-methyl-1H-pyrazol-4-yl)nicotinamide], the “inverse agonism efficacy” value was 1.419. Besides, the inhibition at 0.1 µM under setting [1] turned out to be 32%.

For the compound `O=C(c1ccc(COc2nn3c(-c4cc(CO)on4)nnc3c3ccccc23)nc1)N1CCOCC1` [Compound 41, (6-(((3-(5-(hydroxymethyl)isoxazol-3-yl)-[1,2,4]triazolo[3,4-a]phthalazin-6-yl)oxy)methyl)pyridin-3-yl)(morpholino)methanone], the “inverse agonism efficacy” value was 1.867. Besides, the inhibition at 0.1 µM under setting [1] came out at 42.1%.

Take `CN(C)C(=O)c1ccc(COc2nn3c(-c4cc(CO)on4)nnc3c3ccccc23)nc1` [Compound 45, 6-(((3-(5-(hydroxymethyl)isoxazol-3-yl)-[1,2,4]triazolo[3,4-a]phthalazin-6-yl)oxy)methyl)-N,N-dimethylnicotinamide]: the “inverse agonism efficacy” value worked out at 1.339. Besides, the inhibition at 0.1 µM under setting [1] was 30.2%.

With `NNC(=O)c1ccc(COc2nn3c(-c4cc(CO)on4)nnc3c3ccccc23)nc1` [Compound 51, 6-(((3-(5-(hydroxymethyl)isoxazol-3-yl)-[1,2,4]triazolo[3,4-a]phthalazin-6-yl)oxy)methyl)nicotinohydrazide], the “inverse agonism efficacy” value came to 1.351. Besides, under setting [1], the inhibition at 0.1 µM was 30.5%.

As for `O=C(NN1CCS(=O)(=O)CC1)c1ccc(COc2nn3c(-c4cc(CO)on4)nnc3c3ccccc23)nc1` [Compound 54, N-(1,1-dioxidothiomorpholino)-6-(((3-(5-(hydroxymethyl)isoxazol-3-yl)-[1,2,4]triazolo[3,4-a]phthalazin-6-yl)oxy)methyl)nicotinamide], the “inverse agonism efficacy” value is 1.508. Under setting [1], the inhibition at 0.1 µM was found to be 34%.

With `C[C@H](CO)NC(=O)c1ccc(COc2nn3c(-c4ccoc4)nnc3c3ccccc23)nc1` [Compound 59, (R)-6-(((3-(furan-3-yl)-[1,2,4]triazolo[3,4-a]phthalazin-6-yl)oxy)methyl)-N-(1-hydroxypropan-2-yl)nicotinamide], the “inverse agonism efficacy” value is 1.73. In addition, the inhibition at 0.1 µM under setting [1] came to 39%.

As to `C[C@H](CO)NC(=O)c1ccc(COc2nn3c(-c4ccsc4)nnc3c3ccccc23)nc1` [Compound 60, (R)—N-(1-hydroxypropan-2-yl)-6-(((3-(thiophen-3-yl)-[1,2,4]triazolo[3,4-a]phthalazin-6-yl)oxy)methyl)nicotinamide], the “inverse agonism efficacy” value came to 1.447. Under setting [1], the inhibition at 0.1 µM was found to be 32.6%.

`Cc1nc(COc2nn3c(-c4cc(CO)on4)nnc3c3ccccc23)ccc1C(=O)N[C@H](C)CO` [Compound 61, (R)-6-(((3-(5-(hydroxymethyl)isoxazol-3-yl)-[1,2,4]triazolo[3,4-a]phthalazin-6-yl)oxy)methyl)-N-(1-hydroxypropan-2-yl)-2-methylnicotinamide]: the “inverse agonism efficacy” value came to 2.047. Moreover, the inhibition at 0.1 µM under setting [1] was determined as 46.2%.

As to `Cc1cc(-c2nnc3c4ccccc4c(OCc4cn(C)nn4)nn23)no1` [α5IA, reference compound], the inhibition at 0.1 µM under setting [1] came to 22.6%. Under setting [2], the inhibition at 0.001 µM amounted to 4.2%, the inhibition at 0.01 µM was 9.4%, the inhibition at 0.05 µM was found to be 22.1% and the inhibition at 1 µM stood at 20.7%. Under setting [3], the inhibition at 0.1 µM turned out to be 19%.
